Measured values from patent US11345699B2, “Apoptosis signal-regulating kinase 1 inhibitors and methods of use thereof” (Enanta Pharmaceuticals, Inc., priority 2018, dated 2022).

Target: ASK1 (Homo sapiens (Human), UniProt Q99683)
Test: HTRF KinEASE Assay (TR-FRET), inhibition of ASK1
Format: biochemical
Details: ASK1 kinase, 100 μM ATP, 1 μM STK3 peptide substrate, compound 0 to 10 μM
Protocol: Assay HTRF® KinEASE™ Assay
ASK1 was purchased from Thermofisher (Catalogue #PV4011), ATP was purchased from Sigma (Catalogue #A7699), HTRF® KinEASE™ Assay System was obtained from Cisbio (Bedford, Mass.). ½ Area plate was purchased from Perkin Elmer (Catalogue ##6005560). HTRF® KinEASE™-STK is a generic method for measuring serine/threonine kinase activities using a time-resolved fluorescence resonance energy transfer (TR-FRET) immunoassay. The IC50 value for each compound was determined in the presence of compound (various concentration from 0 to 10 μM) and a fixed amount of ATP and peptide substrates. The test compound, 1 μM STK3 peptide substrate, and […] of ASK1 kinase are incubated with kinase reaction buffer containing 50 mM HEPES Ph 7.5, 0.01% BRIJ-35, 10 mM MgCl2, and 1 mM EGTA for 30 minutes. 100 μM ATP is added to start kinase reaction and incubated for 3 hours. The STK3-antibody labeled with Eu^3+-Cryptate and 125 nM streptavidin-XL665 are mixed in a single addition with stop reagents provided by the Cisbio kit used to stop the kinase reaction. Fluorescence is detected using an Envision Multilabeled 2014 reader from PerkinElmer. The Fluorescence is measured at 615 nm (Cryptate) and 665 nm (XL665) and a ratio of 665 nm/615 nm is calculated for each well. The resulting TR-FRET is proportional to the phosphorylation level. Staurosporine was used as the positive control. IC50 was determined by Xlfit 5.3.
By using above method, the inhibition of ASK1 was evaluated for the compounds of Formula (I). Example numbers correspond to those in Table 5.

Sequence of ASK1 (Q99683 whole entry): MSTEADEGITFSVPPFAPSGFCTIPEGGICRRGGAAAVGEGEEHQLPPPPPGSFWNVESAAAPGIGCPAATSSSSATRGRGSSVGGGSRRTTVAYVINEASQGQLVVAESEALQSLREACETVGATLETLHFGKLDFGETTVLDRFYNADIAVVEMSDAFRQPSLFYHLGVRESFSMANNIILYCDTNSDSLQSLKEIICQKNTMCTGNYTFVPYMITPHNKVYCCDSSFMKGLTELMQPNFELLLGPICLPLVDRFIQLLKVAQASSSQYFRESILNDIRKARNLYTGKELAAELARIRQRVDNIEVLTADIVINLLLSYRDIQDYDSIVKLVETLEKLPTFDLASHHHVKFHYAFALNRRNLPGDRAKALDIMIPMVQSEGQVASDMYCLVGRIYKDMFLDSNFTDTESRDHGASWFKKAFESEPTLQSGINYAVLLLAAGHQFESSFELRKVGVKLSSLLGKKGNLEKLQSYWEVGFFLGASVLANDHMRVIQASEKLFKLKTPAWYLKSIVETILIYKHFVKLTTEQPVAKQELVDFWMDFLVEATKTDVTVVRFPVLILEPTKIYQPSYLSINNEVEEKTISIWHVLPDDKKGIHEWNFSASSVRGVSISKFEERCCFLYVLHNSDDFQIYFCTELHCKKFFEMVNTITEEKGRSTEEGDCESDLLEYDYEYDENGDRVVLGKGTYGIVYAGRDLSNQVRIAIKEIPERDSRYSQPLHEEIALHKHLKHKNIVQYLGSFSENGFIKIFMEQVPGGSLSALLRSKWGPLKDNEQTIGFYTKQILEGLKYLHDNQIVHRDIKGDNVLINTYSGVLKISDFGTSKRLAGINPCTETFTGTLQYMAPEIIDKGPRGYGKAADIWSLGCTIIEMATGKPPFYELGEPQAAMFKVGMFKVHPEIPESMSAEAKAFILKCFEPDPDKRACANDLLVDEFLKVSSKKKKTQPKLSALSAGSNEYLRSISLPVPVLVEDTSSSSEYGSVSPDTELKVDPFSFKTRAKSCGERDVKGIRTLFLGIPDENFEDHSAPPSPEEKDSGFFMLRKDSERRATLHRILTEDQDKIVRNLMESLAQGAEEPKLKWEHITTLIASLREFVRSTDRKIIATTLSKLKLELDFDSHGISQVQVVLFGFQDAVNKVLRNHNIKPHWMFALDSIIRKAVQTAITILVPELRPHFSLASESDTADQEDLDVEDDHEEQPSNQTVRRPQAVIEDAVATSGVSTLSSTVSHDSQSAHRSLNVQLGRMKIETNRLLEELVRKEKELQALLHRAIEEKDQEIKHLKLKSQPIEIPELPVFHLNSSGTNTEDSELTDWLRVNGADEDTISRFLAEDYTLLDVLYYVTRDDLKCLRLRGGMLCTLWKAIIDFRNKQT

Structure (SMILES) | IC50
CC(C)n1cnnc1-c1cccc(NC(=O)c2cc3c(cn2)CCN(C(=O)C(C)(C)C)C3)n1 [Example 1, N-(6-(4-isopropyl-4H-1,2,4-triazol-3-yl)pyridin-2-yl)-6-pivaloyl-5,6,7,8-tetrahydro-2,6-naphthyridine-3-carboxamide] | 1.25 to 10 nM
CC(C)n1cnnc1-c1cccc(NC(=O)c2cc3c(cn2)CCN(S(=O)(=O)N(C)C)C3)n1 [Example 2, 6-(N,N-dimethylsulfamoyl)-N-(6-(4-isopropyl-4H-1,2,4-triazol-3-yl)pyridin-2-yl)-5,6,7,8-tetrahydro-2,6-naphthyridine-3-carboxamide] | 10 to 100 nM
CC(C)CN1CCc2cnc(C(=O)Nc3cccc(-c4nncn4C(C)C)n3)cc2C1 [Example 3, 6-isobutyl-N-(6-(4-isopropyl-4H-1,2,4-triazol-3-yl)pyridin-2-yl)-5,6,7,8-tetrahydro-2,6-naphthyridine-3-carboxamide] | 10 to 100 nM
COc1cc2c(cc1C(=O)Nc1cccc(-c3nncn3C(C)C)n1)CN(C(=O)OC(C)(C)C)CC2 [Example 5, tert-butyl 7-((6-(4-isopropyl-4H-1,2,4-triazol-3-yl)pyridin-2-yl)carbamoyl)-6-methoxy-3,4-dihydroisoquinoline-2(1H)-carboxylate] | 10 to 100 nM
CC(C)n1cnnc1-c1cccc(NC(=O)c2cc3c(cc2F)CCN(C(=O)OC(C)(C)C)C3)n1 [Example 10, tert-butyl 6-fluoro-7-((6-(4-isopropyl-4H-1,2,4-triazol-3-yl)pyridin-2-yl)carbamoyl)-3,4-dihydroisoquinoline-2(1H)-carboxylate] | 1.25 to 10 nM
CC(C)n1cnnc1-c1cccc(NC(=O)c2cc3c(cn2)CCN(S(=O)(=O)C2CC2)C3)n1 [Example 13, 6-(cyclopropylsulfonyl)-N-(6-(4-isopropyl-4H-1,2,4-triazol-3-yl)pyridin-2-yl)-5,6,7,8-tetrahydro-2,6-naphthyridine-3-carboxamide] | 1.25 to 10 nM
CCOC(=O)N1CCc2cc(OC)c(C(=O)Nc3cccc(-c4nncn4C(C)C)n3)cc2C1 [Example 17, ethyl 7-((6-(4-isopropyl-4H-1,2,4-triazol-3-yl)pyridin-2-yl)carbamoyl)-6-methoxy-3,4-dihydroisoquinoline-2(1H)-carboxylate] | 1.25 to 10 nM
CC(C)n1cnnc1-c1cccc(NC(=O)c2cc3c(cc2F)CCN(C(=O)OCC(F)(F)F)C3)n1 [Example 21, 2,2,2-trifluoroethyl 6-fluoro-7-((6-(4-isopropyl-4H-1,2,4-triazol-3-yl)pyridin-2-yl)carbamoyl)-3,4-dihydroisoquinoline-2(1H)-carboxylate] | 1.25 to 10 nM
CC(C)n1cnnc1-c1cccc(NC(=O)c2cc3c(cn2)CCN(C(=O)OCC(F)(F)F)C3)n1 [Example 25, 2,2,2-trifluoroethyl 7-((6-(4-isopropyl-4H-1,2,4-triazol-3-yl)pyridin-2-yl)carbamoyl)-3,4-dihydro-2,6-naphthyridine-2(1H)-carboxylate] | 1.25 to 10 nM
C[C@H](CO)n1cnnc1-c1cccc(NC(=O)c2cc3c(cn2)CCN(S(=O)(=O)C2CC2)C3)n1 [Example 38, (R)-6-(cyclopropylsulfonyl)-N-(6-(4-(1-hydroxypropan-2-yl)-4H-1,2,4-triazol-3-yl)pyridin-2-yl)-5,6,7,8-tetrahydro-2,6-naphthyridine-3-carboxamide] | 10 to 100 nM
COc1cc2c(cc1C(=O)Nc1cccc(-c3nnnn3[C@H](C)CO)n1)CN(c1ncccn1)CC2 [Example 84, (R)-N-(6-(1-(1-hydroxypropan-2-yl)-1H-tetrazol-5-yl)pyridin-2-yl)-6-methoxy-2-(pyrimidin-2-yl)-1,2,3,4-tetrahydroisoquinoline-7-carboxamide] | 1.25 to 10 nM
COCCOC(=O)N1CCc2cc(OC)c(C(=O)Nc3cccc(-c4nnnn4[C@H](C)CO)n3)cc2C1 [Example 96] | < 1.25 nM
COc1cc2c(cc1C(=O)Nc1cccc(-c3nnnn3[C@H](C)CO)n1)CN(C(=O)c1cnn(C3CC3)c1)CC2 [Example 97] | < 1.25 nM
COc1cc2c(cc1C(=O)Nc1cccc(-c3nnnn3[C@H](C)CO)n1)CN(c1c(N)c(=O)c1=O)CC2 [Example 98, (R)-2-(2-amino-3,4-dioxocyclobut-1-en-1-yl)-N-(6-(1-(1-hydroxypropan-2-yl)-1H-tetrazol-5-yl)pyridin-2-yl)-6-methoxy-1,2,3,4-tetrahydroisoquinoline-7-carboxamide] | 1.25 to 10 nM
C[C@H](CO)n1nnnc1-c1cccc(NC(=O)c2cc3c(cn2)CCN(C(=O)C(C)(C)CO)C3)n1 [Example 99] | 10 to 100 nM
C[C@H](CO)n1nnnc1-c1cccc(NC(=O)c2cc3c(cn2)CCN(C(=O)c2cnn(C4CC4)c2)C3)n1 [Example 100] | 1.25 to 10 nM
COc1cc2c(cc1C(=O)Nc1cccc(-c3nnnn3[C@H](C)CO)n1)CN(C(=O)c1ccccn1)CC2 [Example 101] | < 1.25 nM

Next, values leading:

IC50 | Structure (SMILES)
1.25 to 10 nM | COc1cc2c(cc1C(=O)Nc1cccc(-c3nnnn3[C@H](C)CO)n1)CN(C(=O)c1cc3ccccc3cn1)CC2 [Example 102]
1.25 to 10 nM | CCOC(=O)N1CCc2cc(F)c(C(=O)Nc3cccc(-c4nncn4[C@H](C)CF)n3)cc2C1 [Example 103]
< 1.25 nM | COc1cc2c(cc1C(=O)Nc1cccc(-c3nnnn3[C@H](C)CO)n1)CN(S(=O)(=O)c1ccccn1)CC2 [Example 104]
< 1.25 nM | COc1cc2c(cc1C(=O)Nc1cccc(-c3nnnn3[C@H](C)CO)n1)CN(C(=O)[C@](C)(O)C(F)(F)F)CC2 [Example 105]
1.25 to 10 nM | C[C@H](CO)n1nnnc1-c1cccc(NC(=O)c2cc3c(cn2)CCN(C(=O)c2cn(C4CC4)cn2)C3)n1 [Example 106]
1.25 to 10 nM | CCOC(=O)N1CCc2cc(F)c(C(=O)Nc3cccc(-c4nncn4[C@@H](C)CF)n3)cc2C1 [Example 107]
1.25 to 10 nM | C[C@H](CO)n1nnnc1-c1cccc(NC(=O)c2cc3c(cn2)CCN(c2ncccn2)C3)n1 [Example 108, (R)—N-(6-(1-(1-hydroxypropan-2-yl)-1H-tetrazol-5-yl)pyridin-2-yl)-6-(pyrimidin-2-yl)-5,6,7,8-tetrahydro-2,6-naphthyridine-3-carboxamide]
1.25 to 10 nM | CCOC(=O)N1CCc2cc(F)c(C(=O)Nc3cccc(-c4nnnn4[C@H](C)CO)n3)cc2C1 [Example 109]
10 to 100 nM | COCCOC(=O)N1CCc2cc(F)c(C(=O)Nc3cccc(-c4nnnn4[C@H](C)CO)n3)cc2C1 [Example 110]
1.25 to 10 nM | CCNC(=O)N1CCc2cc(F)c(C(=O)Nc3cccc(-c4nnnn4[C@H](C)CO)n3)cc2C1 [Example 111]
< 1.25 nM | COc1cc2c(cc1C(=O)Nc1cccc(-c3nnnn3[C@H](C)CO)n1)CN(C(=O)c1cnccn1)CC2 [Example 112]
< 1.25 nM | COc1cc2c(cc1C(=O)Nc1cccc(-c3nnnn3[C@H](C)CO)n1)CN(C(=O)[C@@H](O)CC(C)C)CC2 [Example 113]
< 1.25 nM | COc1cc2c(cc1C(=O)Nc1cccc(-c3nnnn3[C@H](C)CO)n1)CN(C(=O)C1(O)CC1)CC2 [Example 114]
< 1.25 nM | COc1cc2c(cc1C(=O)Nc1cccc(-c3nnnn3[C@H](C)CO)n1)CN(C(=O)C(C)(C)O)CC2 [Example 115]
1.25 to 10 nM | C[C@H](CO)n1nnnc1-c1cccc(NC(=O)c2cc3c(cc2F)CCN(C(=O)N2CCCCC2)C3)n1 [Example 116]
10 to 100 nM | C[C@H](CO)n1nnnc1-c1cccc(NC(=O)c2cc3c(cc2F)CCN(S(=O)(=O)NC2CC2)C3)n1 [Example 117]
